What was measured:
[1] = tested on: murine L1210 leukemia cells; assay: Antitumor effect on murine L1210 leukemia cell (intraperitoneally inoculated mice, increase in life-span); type: in vivo, murine; male CDF1 mice; conditions: for ILS50 (a dose which shows 50% of the ILS value by 5 administrations): from linear regression line; for dose corresponding to ILSmax: dose shown in parenthesis; for ILSmax (maximum ILS value within the set doses): male CDF1 mice, observed for 30 days
From the text: (§1) Murine L1210 leukemia cells (1×10^5 cells) were inoculated peritoneally into six-week-old male CDF1 mice.
(§2) T: mean survival days of drug-treated group
(§3) C: mean survival days of untreated group
(§4) In the table, ILSmax means the maximum ILS value (%) within the set doses, and its corresponding dose (mg/kg) is shown in parenthesis.

[2] = tested on: cisplatin-resistant murine L1210 leukemia cell (L1210/DDP); assay: Antitumor effect on cisplatin-resistant murine L1210 leukemia cell (L1210/DDP), increase in life-span; type: in vivo, murine; male CDF1 mice; conditions: for dose corresponding to ILSmax: dose(s) shown in parenthesis; for ILSmax (maximum ILS value within the set doses): male CDF1 mice, observed for 30 days; for ILS50 (a dose which shows 50% of the ILS value by 5 administrations): ND: not detectable; for TI (therapeutic index LD50/ILS50): LD50/ILS50, ND: not detectable
From the text: as §1, §2, §3, §4
Antitumor effect on cisplatin-resistant murine L1210 leukemia cell:
The above test of the antitumor effect on murine leukemia cells was repeated except that cisplatin-resistant murine L1210 leukemia cell (L1210/DDP) was used instead of murine L1210 leukemia cell, with the results shown in Table 2.

male CDF1 mice = assay: 50% lethal dose by single intraperitoneal administration; type: in vivo
From the text: as §4

Row | Compound | ILS50 (a dose which shows 50% of the ILS value by 5 administrations) [1] [mg/kg] | dose corresponding to ILSmax [1] [mg/kg] | ILSmax (maximum ILS value within the set doses) [1] [%] | dose corresponding to ILSmax [2] | ILSmax (maximum ILS value within the set doses) [2] [%] | TI (therapeutic index LD50/ILS50) [1] | LD50 (male CDF1 mice) [mg/kg] | ILS50 (a dose which shows 50% of the ILS value by 5 administrations) [2] [mg/kg] | TI (therapeutic index LD50/ILS50) [2]
1 | N.N.[Cl][Pt][Cl] [Cisplatin, cisplatin, reference compound] | 1.3 | 4 | 97.5 | 4 mg/kg | 1.0 |  |  |  | 
2 | O=C([O][Pt]1([Cl])[NH]C2CCCCC2[NH]1)C1CCCC1 (stereo not drawn) [Compound 16, chloro(cyclopentanecarboxylato)(trans-1-1,2-diaminocyclohexane)platinum(II)] | 5.6 | 32 | > 221.3 | 4,8 mg/kg | > 194.1 | 31.6 | 176.8 | < 4.0 | > 44.2
3 | chloro (cyclopropanecarboxylato) (trans-1-1,2-diaminocyclohexane)platinum(II) [Compound 15] | 1.2 | 8 | > 166.3 | 1,2 mg/kg | > 194.1 | 26.1 | 31.3 | < 1.0 | > 31.3
4 | chloro(1-lactato)(trans-1-1,2-diaminocyclohexane)platinum(II) [Compound 17] | < 1.0 | 8 | > 190.0 | 1,2 mg/kg | > 194.1 | > 44.3 | 44.3 | < 1.0 | > 44.3
5 | chloro(propionato)(trans-1-1,2-diaminocyclohexane)platinum(II) [Compound 14] | 1.0 | 8 | 146.3 |  | > 194.1 | 44.3 | 44.3 | < 1.0 | > 44.3

— US5585511A, “Platinum complex and malignant tumor treating drug containing the same” (SS Pharmaceutical Co., Ltd., priority 1994, dated 1996)
